According to patent US4224326A, “Immunosuppressive agents” (Eli Lilly and Company, priority 1978, dated 1980):
Read-outs that look alike come from different tables or passages of the source.

Assays:
[1] = tested on: antibody (hemagglutinin) titer against sheep red blood cells; experiment: Individual serum assay procedure (hemagglutinin titer); type: in vivo; conditions: Erythrocyte, ten daily doses, 10-mouse groups, read-out: Endpoint Dose (p <0.05), lowest dose significantly lowering antibody titer
Description: Groups of five 20-gram, male, random-bred, Swiss mice received intravenous injections of 5×10^7 sheep red blood cells. The cells for these injections were prepared from lamb's blood (collected in Alsever's solution) by washing three times with 0.85 percent saline and resuspending in 0.85 percent saline. Nine daily doses of each compound to be tested, solubilized in polyethylene glycol 400, were administered orally in 0.1 ml. doses, commencing three days prior to red blood cell injection. Several dose levels of each compound were employed, at 2-fold increments. A control group of mice, receiving a red blood cell injection and nine daily doses of vehicle instead of drug, was included. Six days after the antigen injections, the mice were bled by cardiac puncture and the sera from each 5-mouse group pooled. The serum pools, following complement inactivation, were assayed for hemagglutinin content by standard procedures, utilizing a mixture of serial 2-fold saline dilutions of the test sera with 0.5 percent sheep red blood cell suspensions in plastic depression trays. Following incubation of the trays for 3 hours at 37° C., the hemagglutination patterns were graded. […] The mice were bled as before, but the sera were titered individually rather than as a pool. Mean hemagglutinin values (log2)±S.E. were calculated for each 10-mouse group and p values (by Student's t Test), in comparison with the control group, were determined. […] The drugs were administered orally or subcutaneously in ten daily doses, commencing three days prior to red blood cell injection. Drugs were suspended in a vehicle composed of saline containing 0.125 percent methylcellulose and 0.2 percent nonionic emulsifying agent. Antibody (hemagglutinin) determinations were made seven days following a red blood cell injection.

[2] = tested on: antibody (hemagglutinin) production against sheep red blood cells; experiment: Mouse hemagglutinin assay, oral administration (antibody reduction); type: in vivo, mouse (male, random-bred, Swiss); conditions: Erythrocyte, nine daily doses, pooled sera of 5 mice, read-out: minimum effective dose (MED), lowest dose producing 75 percent or greater antibody reduction
Description: Groups of five 20-gram, male, random-bred, Swiss mice received intravenous injections of 5×10^7 sheep red blood cells. The cells for these injections were prepared from lamb's blood (collected in Alsever's solution) by washing three times with 0.85 percent saline and resuspending in 0.85 percent saline. Nine daily doses of each compound to be tested, solubilized in polyethylene glycol 400, were administered orally in 0.1 ml. doses, commencing three days prior to red blood cell injection. Several dose levels of each compound were employed, at 2-fold increments. A control group of mice, receiving a red blood cell injection and nine daily doses of vehicle instead of drug, was included. Six days after the antigen injections, the mice were bled by cardiac puncture and the sera from each 5-mouse group pooled. The serum pools, following complement inactivation, were assayed for hemagglutinin content by standard procedures, utilizing a mixture of serial 2-fold saline dilutions of the test sera with 0.5 percent sheep red blood cell suspensions in plastic depression trays. Following incubation of the trays for 3 hours at 37° C., the hemagglutination patterns were graded.

GVH reaction = experiment: Graft-versus-host (GVH) reaction, spleen weight; type: in vivo, mouse (C57BL spleen cells into C57BL×C3H F1 hybrid)
Description: In this test, parental (C57BL) mouse spleen cells are injected into mice of an F1 hybrid strain (C57BL×C3H). […] As a consequence, the recipient's spleen becomes enlarged. Immunosuppression prevents or reduces this enlargement. Thus, spleen weights provide a measure of the GVH reaction and its reduction under immunosuppression. A modification of Simonsen's original procedure (Ann. N.Y. Acad. Sci. 73:834, 1958) was employed. Large crops of spleen cells were obtained, without the generally employed manual teasing of spleens, by using Waring blendors with the cutting blades reversed. Two six-second blending periods buffeted the spleens (batches of 25 C57BL spleens in 25-ml saline) sufficiently to free the cells from the connective tissue. The latter was removed by filtration through several thicknesses of cheesecloth. Cell suspensions prepared in this fashion were standardized, by means of Levy-Hausser chamber counts, to contain 6×10^8 nucleated cells per ml. Groups of ten 16-18 gram C57BL×C3H mice were injected intraperitoneally with 1 ml of the donor cell suspension. Treatment, by the oral or subcutaneous route in 0.2 ml, was instituted 3 days prior to cell injection and continued daily for 13 days. Control animals received only cells and vehicle. The spleens were removed and weighed 10 days following cell injection. The results were expressed as mg spleen/gram body weight. Since the injection of syngeneic, i.e., C57BL×C3H, cells into the recipient mice produces a minor degree of splenomegaly, spleen weights of such animals were used to define 100% suppression of the GVH component in calculating percents of inhibition produced by the immunosuppressive compounds.

[3] = tested on: adjuvant-induced arthritis (uninjected hind paw swelling, bone damage); experiment: Adjuvant-induced arthritis test in rats; type: in vivo, rat (male Lewis-Wistar); conditions: 30 mg/kg/day oral; for % inhibition (uninjected paw volume): printed under Day 18, formula in footnote drawing
[4] = Day 11, TB control 2.02 ± 0.037
[5] = Day 14, TB control 2.69 ± 0.106
[6] = Day 16, TB control 3.26 ± 0.202
[7] = Day 18, TB control 3.65 ± 0.227

F.FC(F)(F)Oc1ccc(C2=Nc3cccc4cccc(c34)N2)cc1 [2-(p-TRIFLUOROMETHOXYPHENYL)-1H-PERIMIDINE HYDROFLUORIDE]
minimal effective dose ([1]; oral): 12.5 mg/kg
minimal effective dose [2]: < 100 mg/kg

Cl.Clc1cc(C2=Nc3cccc4cccc(c34)N2)ccc1Br [2-(4-bromo-3-chlorophenyl)-1H-perimidine hydrochloride]
minimal effective dose [2]: 50 mg/kg

Cl.FC(F)(F)c1cccc(C2=Nc3cccc4cccc(c34)N2)c1 [2-(m-trifluoromethylphenyl)-1H-perimidine hydrochloride]
minimal effective dose [2]: 100 mg/kg

Cl.Clc1ccc(C2=Nc3cccc4cccc(c34)N2)cc1Br [2-(3-bromo-4-chlorophenyl)-1H-perimidine hydrochloride]
minimal effective dose [2]: 50 mg/kg

Brc1ccc(C2=Nc3cccc4cccc(c34)N2)cc1.Cl [2-(p-bromophenyl)-1H-perimidine hydrochloride]
minimal effective dose ([1]; sc, subcutaneous): < 3.1 mg/kg
minimal effective dose ([1]; oral): 25 mg/kg
minimal effective dose [2]: 12.5 mg/kg

COc1ccc2nc(NC(=O)Nc3ccccc3)sc2c1 [1-(6-methoxy-2-benzothiazolyl)-3-phenylurea, reference compound]
Percent Inhibition (GVH reaction; 12.5 mg/kg × 13, oral, illustrative calculation with Syn. Control 5.20): 74%
Mg Spleen/g Body Wt. ± S.E. (GVH reaction; 12.5 mg/kg × 13, oral, p<0.01 vs GVH control (11.55 ± 1.01), groups of 5 mice): 6.86 ± 0.80 mg spleen/g body wt

Cn1cnc([N+](=O)[O-])c1Sc1ncnc2nc[nH]c12 [Azathioprine, reference compound]
minimal effective dose [2]: 100 mg/kg

Brc1ccc(C2=Nc3cccc4cccc(c34)N2)cc1 [2-(p-bromophenyl)-1H-perimidine]
Percent Inhibition, GVH Series (GVH reaction; 3.1 mg/kg × 13, subcutaneous): 19%
Mg Spleen/g mouse weight (mean + S.E.) (GVH reaction; 3.1 mg/kg × 13, subcutaneous, control 8.84 ± 0.72): 8.08 ± 0.66 mg spleen/g mouse weight
Percent Inhibition, GVH Series (GVH reaction; 6.2 mg/kg × 13, subcutaneous): 66%
Mg Spleen/g mouse weight (mean + S.E.) (GVH reaction; 6.2 mg/kg × 13, subcutaneous, p <0.01, control 8.84 ± 0.72): 6.18 ± 0.39 mg spleen/g mouse weight
Percent Inhibition, GVH Series (GVH reaction; 12.5 mg/kg × 13, subcutaneous): 79%
Mg Spleen/g mouse weight (mean + S.E.) (GVH reaction; 12.5 mg/kg × 13, subcutaneous, p <0.005, control 8.84 ± 0.72): 5.64 ± 0.65 mg spleen/g mouse weight
Percent Inhibition, GVH Series (GVH reaction; 25 mg/kg × 13, subcutaneous): 84%
Mg Spleen/g mouse weight (mean + S.E.) (GVH reaction; 25 mg/kg × 13, subcutaneous, p <0.001, control 8.84 ± 0.72): 5.43 ± 0.41 mg spleen/g mouse weight
Percent Inhibition, GVH Series (GVH reaction; 50 mg/kg × 13, subcutaneous): 102%
Mg Spleen/g mouse weight (mean + S.E.) (GVH reaction; 50 mg/kg × 13, subcutaneous, p <0.001, control 8.84 ± 0.72): 4.70 ± 0.21 mg spleen/g mouse weight
minimal effective dose [2]: 25 mg/kg

Cl.FC(F)(F)C(F)(F)Oc1ccc(C2=Nc3cccc4cccc(c34)N2)cc1 [2-(p-PENTAFLUOROETHOXYPHENYL)-1H-PERIMIDINE HYDROCHLORIDE]
minimal effective dose [2]: 100 mg/kg

Cl.FC(F)(F)c1ccc(C2=Nc3cccc4cccc(c34)N2)cc1 [2-(p-TRIFLUOROMETHYLPHENYL)-1H-PERIMIDINE HYDROCHLORIDE]
Percent Inhibition, GVH Series (GVH reaction; 1.6 mg/kg × 13, oral): 78%
Mg Spleen/g mouse weight (mean + S.E.) (GVH reaction; 1.6 mg/kg × 13, oral, p <0.05, control 8.64 ± 1.10): 5.66 ± 0.33 mg spleen/g mouse weight
Percent Inhibition, GVH Series (GVH reaction; 3.1 mg/kg × 13, oral): 96%
Mg Spleen/g mouse weight (mean + S.E.) (GVH reaction; 3.1 mg/kg × 13, oral, p <0.01, control 8.64 ± 1.10): 4.96 ± 0.31 mg spleen/g mouse weight
Percent Inhibition, GVH Series (GVH reaction; 6.2 mg/kg × 13, oral): 77%
Mg Spleen/g mouse weight (mean + S.E.) (GVH reaction; 6.2 mg/kg × 13, oral, p <0.05, control 8.64 ± 1.10): 5.67 ± 0.51 mg spleen/g mouse weight
Percent Inhibition, GVH Series (GVH reaction; 12.5 mg/kg × 13, oral): 53%
Mg Spleen/g mouse weight (mean + S.E.) (GVH reaction; 12.5 mg/kg × 13, oral, control 8.64 ± 1.10): 6.62 ± 1.17 mg spleen/g mouse weight
Percent Inhibition, GVH Series (GVH reaction; 25 mg/kg × 13, oral): 101%
Mg Spleen/g mouse weight (mean + S.E.) (GVH reaction; 25 mg/kg × 13, oral, p <0.005, control 8.64 ± 1.10): 4.75 ± 0.42 mg spleen/g mouse weight
Uninjected Paw Volume ([3]; Day 9, TB control 1.94 ± 0.028): 1.93 ± 0.081
Uninjected Paw Volume [3, 4]: 1.95 ± 0.079
Uninjected Paw Volume [3, 5]: 2.13 ± 0.148
Uninjected Paw Volume [3, 6]: 2.35 ± 0.233
Uninjected Paw Volume [3, 7]: 2.53 ± 0.39
Gross observation of X-ray photos, bone damage in injected and uninjected paws ([3]; day 18, bone damage very obvious in TB control): no bone damage
% inhibition (uninjected paw volume) [3]: 69%
minimal effective dose ([1]; sc, subcutaneous): < 1.6 mg/kg
minimal effective dose ([1]; oral): < 1.6 mg/kg
minimal effective dose [2]: 6.25 mg/kg

Brc1ccc(C2=Nc3cccc4cccc(c34)N2)cc1Br.Cl [2-(3,4-dibromophenyl)-1H-perimidine hydrochloride]
minimal effective dose [2]: 50 mg/kg

Cl.FC(F)(F)Sc1ccc(C2=Nc3cccc4cccc(c34)N2)cc1 [2-(p-TRIFLUOROMETHYLTHIOPHENYL)-1H-PERIMIDINE HYDROCHLORIDE]
minimal effective dose ([1]; oral): 50 mg/kg
minimal effective dose [2]: < 100 mg/kg

CC(C(=O)O)c1cccc(Oc2ccccc2)c1 (stereo not shown) [fenoprofen, reference compound]
Uninjected Paw Volume ([3]; Day 9, TB control 1.94 ± 0.028): 1.97 ± 0.023
Uninjected Paw Volume [3, 4]: 2.11 ± 0.07
Uninjected Paw Volume [3, 5]: 2.38 ± 0.099
Uninjected Paw Volume [3, 6]: 2.7 ± 0.107
Uninjected Paw Volume [3, 7]: 2.67 ± 0.128
% inhibition (uninjected paw volume) [3]: 23%

Clc1ccc(C2=Nc3cccc4cccc(c34)N2)cc1 [2-(p-chlorophenyl)-1H-perimidine]
minimal effective dose [2]: 100 mg/kg

Brc1ccc(C2Nc3cccc4cccc(c34)N2)cc1 [2,3-dihydro-2-(p-bromophenyl)-1H-perimidine]
minimal effective dose [2]: 25 mg/kg

Brc1cccc(C2=Nc3cccc4cccc(c34)N2)c1.Cl [2-(m-bromophenyl)-1H-perimidine hydrochloride]
minimal effective dose [2]: 100 mg/kg

Cl.Clc1ccc(C2=Nc3cccc4cccc(c34)N2)cc1Cl [2-(3,4-dichlorophenyl)-1H-perimidine hydrochloride]
minimal effective dose ([1]; sc, subcutaneous): < 3.1 mg/kg
minimal effective dose ([1]; oral): < 3.1 mg/kg
minimal effective dose [2]: 12.5 mg/kg
